Like-named read-outs stand apart in the source and are kept apart here.
Target: human α-thrombin (Homo sapiens, UniProt P00734)
Assay: In vitro assay for determining proteinase inhibition, human α-thrombin
Format: biochemical
Experimental: The assays were carried out at 25° C. in 0.05 M TRIS buffer pH 7.4, 0.15 M NaCl, 0.1% PEG. Trypsin assays also contained 1 mM CaCl2.
Concentrations of stock solutions of Z-GPR-afc were determined from measurements of absorbance at 380 nm of the 7-amino-4-trifluoromethyl coumarin produced upon complete hydrolysis of an aliquot of the stock solution by thrombin.
Times required to achieve equilibration between enzyme and inhibitor were determined in control experiments. Initial velocities of product formation in the absence (Vo) or presence of inhibitor (Vi) were measured. Assuming competitive inhibition, and that unity is negligible compared Km /[S], […] (where [S], [I], and e respectively represent the total concentrations, of substrate, inhibitor and enzyme), the equilibrium constant (Ki) for dissociation of the inhibitor from the enzyme can be obtained from the dependence of Vo /Vi on [I] shown in equation 1.

[1] = thrombin, 25° C., 0.05 M TRIS buffer pH 7.4, 0.15 M NaCl, 0.1% PEG, read-out: Inhibitory activity, Ki

Question: With `Cc1nc(N)ccc1CNC(=O)Cn1c(C)cc(S(=O)(=O)N2CCCC2)c(N)c1=O` as the compound, how does the Ki [1] read?
Answer: < 5 nM

Question: With `Cc1nc(N)ccc1CNC(=O)Cn1c(C)cc(S(=O)(=O)NCC2CCC2)c(N)c1=O` as the compound, how does the Ki read?
Answer: < 5 nM

Question: How did the Ki [1] turn out when `Cc1nc(N)ccc1CNC(=O)Cn1c(C)cc2c(c1=O)NCCS2(=O)=O` was run?
Answer: > 5 nM

Question: How did the Ki [1] turn out when `Cc1nc(N)ccc1CNC(=O)Cn1c(C)cc2c(c1=O)NCC(c1ccccc1)S2(=O)=O` (centres unmarked) was run?
Answer: > 5 nM

Question: How did the Ki turn out when `Cc1nc(N)ccc1CNC(=O)Cn1c(C)cc2c(c1=O)NCN(CC1CC1)S2(=O)=O` was run?
Answer: < 5 nM

From patent publication US6117888A, “Thrombin inhibitors” (Merck & Co., Inc., priority 1999, dated 2000)
